According to the METLIN SMRT retention time set (Domingo-Almenara et al. 2019):

Experiment: gradient 5% acetonitrile 3 min, to 50% in 2 min, to 85% in 15 min, held 3 min, 100 µL/min
Details: column: Zorbax Extend-C18 2.1 x 50 mm; eluents: water / acetonitrile, 0.1% formic acid
How it was run: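 Data were gathered over 3 months by HPLC coupled to a quadrupole time-of-flight mass spectrometer, operated in positive and negative ionization mode. Mixtures of ~100 pure standards ran on a Zorbax Extend-C18 column (2.1 × 50 mm, 1.8 μm) at 100 μL/min, with water and acetonitrile each containing 0.1% formic acid and dead and dwell volumes of 40 μL and 900 μL. Retention time was read from adduct peaks picked by computer and checked manually.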

With `CC(C)(C)c1ccc(NC(=O)N2CCN(CCNC(=O)c3cccs3)CC2)cc1` the RP-LC retention time was 616 s.
`CCc1c(C(=O)O)nnn1Cc1c(F)cccc1Cl` showed an RP-LC retention time of 742 s.
`CN1c2ccc(F)cc2C(=O)NC12CCN(C(=O)c1ccccc1F)CC2` gave an RP-LC retention time of 745 s.
Compound `COc1ccc(C(C)NC(=O)C2CCN(c3nccnc3Sc3ccc(C)cc3)CC2)cc1` (stereo not drawn) has an RP-LC retention time of 1060 s.
`COc1cccc(Cn2nc3n(Cc4ccc(C)cc4)c(=O)c4nn(C)cc4n3c2=O)c1` gave an RP-LC retention time of 935 s.
`Cc1ccc(C)c(N2CCN(C(=O)c3ccc4c(c3)NC(=O)C3CCCCN43)CC2)c1` (stereo not drawn) gave an RP-LC retention time of 1050 s.
`Cc1ccc(NC(=O)Cn2nc3c(Oc4ccccc4C)nccn3c2=O)cc1` showed an RP-LC retention time of 853 s.
`COC(=O)C(C)NC(=O)N1CCCN(C2=NS(=O)(=O)C(c3ccccc3)=C2C)CC1` (stereo not drawn) gave an RP-LC retention time of 715 s.
Work on `COC(=O)c1ncn2c1C(=O)N(Cc1cccc(Cl)c1)C(C)(C(=O)NCc1ccccc1)C2` (stereo not drawn) yielded an RP-LC retention time of 755 s.
Compound `CC1CCN(C(=O)C2=NNc3ccccc3S2(=O)=O)CC1` has an RP-LC retention time of 740 s.
For `COc1ccc(S(=O)(=O)N2CCC(c3noc(C4CC4)n3)C2)cc1` (stereo not drawn), the RP-LC retention time was 847 s.
`COC[C@@H]1CN(Cc2cn[nH]c2-c2ccccc2)C[C@H]1c1ccccn1` showed an RP-LC retention time of 604 s.
Compound `CC(C)NC(=O)Cn1c(=O)cc(-c2nc(C3CC3)no2)c2ccccc21` has an RP-LC retention time of 806 s.
In the case of `CCOc1ccc(NC(=O)N2CCC(n3cnnc3C3CC3)C2)cc1` (stereo not drawn), the RP-LC retention time is reported as 630 s.
`COc1cccc(/C=C/C(=O)N2CCC(c3cc(N)on3)CC2)c1` gave an RP-LC retention time of 716 s.
In the case of `Cc1cc(S(=O)(=O)N2CCC(n3cnnc3C)CC2)ccc1F`, the RP-LC retention time is reported as 702 s.
Compound `O=C(NCc1ccccn1)c1ccc(=O)n(Cc2ccccc2)n1` has an RP-LC retention time of 573 s.
With `CCn1c(=O)c2cc(C(=O)N3CCC(Cc4ccccc4)CC3)nn2c2ccccc21` the RP-LC retention time was 1150 s.
Compound `COCCCNC(=O)N1CC(c2nc(C)no2)C2(CCOCC2)C1` (stereo not drawn) has an RP-LC retention time of 598 s.
With `CN(C)c1ccc(C(=O)Nc2cc(-c3ccsc3)no2)cc1` the RP-LC retention time was 961 s.
With `CCCN1C(=O)COc2ccc(-c3noc(Cc4cccc(F)c4)n3)cc21` the RP-LC retention time was 1100 s.
Compound `O=S(=O)(c1ccc2c(c1)CCC2)N1CCCC(Cn2c(C3CC3)nc3cccnc32)C1` (stereo not drawn) has an RP-LC retention time of 775 s.
For `COc1ccc(-c2nnc(CC(=O)NCc3ccccn3)o2)cc1`, the RP-LC retention time was 588 s.
For `CCc1cc(=O)n(CC(=O)Nc2cc(C)ccc2OC)c(N2CCOCC2)n1`, the RP-LC retention time was 854 s.
For `Cc1ccc(C)c(-c2cc3c4nn(CC(=O)Nc5cc(F)ccc5F)c(=O)n4ccn3n2)c1`, the RP-LC retention time was 1050 s.
Compound `CNC(=O)C1CCCN(c2nc3ncn(CC(=O)NC4CCCCC4)c(=O)c3s2)C1` (stereo not drawn) has an RP-LC retention time of 632 s.
Work on `Cc1cccc(-c2ncccc2CNS(=O)(=O)c2ccc(C#N)cc2)c1` yielded an RP-LC retention time of 697 s.
For `CN(C)C(CNC(=O)c1cc(-c2ccc3c(c2)OCCO3)on1)c1ccc(Cl)cc1` (stereo not drawn), the RP-LC retention time was 705 s.
For `COc1ccc(OC)c(S(=O)(=O)N2C[C@@H](F)C[C@H]2C(=O)N2CCOCC2)c1`, the RP-LC retention time was 906 s.
With `COc1ccc(NC(=O)N2C[C@@H]3C[C@H](NS(=O)(=O)c4ccccc4)[C@H]2C3)c(OC)c1` the RP-LC retention time was 745 s.
`COc1ccc(NC(=O)c2[nH]c3cc(C)sc3c2CN(C)C)cc1` showed an RP-LC retention time of 666 s.
For `COC(=O)c1c(C)[nH]c(C(=O)N2CCC(CC(=O)NC(C)c3ccccc3)CC2)c1C` (stereo not drawn), the RP-LC retention time was 762 s.
`CCc1ccc(NC(=O)Cn2cnc3nc(N4CCC(C(=O)NC5CC5)CC4)sc3c2=O)cc1` showed an RP-LC retention time of 708 s.
In the case of `COc1ccc(-c2nc3ncccn3c2Nc2ccc3c(c2)OCCO3)cc1`, the RP-LC retention time is reported as 674 s.
Work on `O=C1C(c2cccs2)N(Cc2ccco2)C(=O)CN1c1ccccc1` (stereo not drawn) yielded an RP-LC retention time of 734 s.
`COc1ccc(C2=NC3(CCN(C(C)C)CC3)NC(c3ccccc3O)C2)cc1` (stereo not drawn) showed an RP-LC retention time of 592 s.
`CC1CCCN(c2nn(CC(=O)Nc3cccc(C(C)C)c3)c(=O)c3ccccc23)C1` (stereo not drawn) showed an RP-LC retention time of 1300 s.
For `CCn1ccc(C(=O)N2CCC(c3nc4cccnc4n3CCOC)C2)n1` (stereo not drawn), the RP-LC retention time was 606 s.
For `O=C(COc1ccc(F)cc1)N1CCN2CCS(=O)(=O)N(C3CC3)C(=O)C2C1` (stereo not drawn), the RP-LC retention time was 773 s.
Compound `CCCCn1c(=O)c2ccccc2n(Cc2nc(-c3ccc(F)c(Br)c3)no2)c1=O` has an RP-LC retention time of 1320 s.
`Cc1ccc(S(=O)(=O)N2CCCC2CNC(=O)c2ccc(F)c(F)c2)cc1` (stereo not drawn) showed an RP-LC retention time of 896 s.
With `Cc1nn2c(CNC(=O)c3ccc(Br)cc3)c(C)nc2s1` the RP-LC retention time was 656 s.
In the case of `CCOc1ccc2ncc(C(=O)c3ccccc3)c(N3CCN(CC)CC3)c2c1`, the RP-LC retention time is reported as 591 s.
In the case of `COc1ccc(-c2nc3cnc(Br)cn3c2Nc2ccc(OC)c(OC)c2)cc1`, the RP-LC retention time is reported as 852 s.
For `O=C1CC2(CCCC2)CC(=O)N1CCCCNCC1COc2ccccc2O1` (stereo not drawn), the RP-LC retention time was 758 s.
Work on `C=CCn1c(=O)c2ccc(C(=O)NCC(C)C)cc2n2c(=O)n(CC(N)=O)nc12` yielded an RP-LC retention time of 643 s.
`CCN(CC)C(=O)c1ccc2c(c1)N(CC(=O)NC1CCCCC1)C(=O)C1CCCCN21` (stereo not drawn) gave an RP-LC retention time of 838 s.
Compound `O=S(=O)(c1ccccc1)N1CCC(CCOc2ccccc2)C1` (stereo not drawn) has an RP-LC retention time of 754 s.
With `CCn1ccc2cc(S(=O)(=O)N3CCC(C(=O)NCCCN4CCCCC4C)CC3)ccc21` (stereo not drawn) the RP-LC retention time was 665 s.
Compound `CCOC(=O)c1c(C)[nH]c(C)c1S(=O)(=O)N1CCC(C(=O)NC2CCCC2)CC1` has an RP-LC retention time of 735 s.
Work on `Cc1ccc2nc(-c3ccccc3Cl)c(Nc3ccc(Cl)cc3)n2c1` yielded an RP-LC retention time of 780 s.
Work on `O=C(NCC1CCCO1)c1cn(-c2cc(N3CCSCC3)ncn2)cn1` (stereo not drawn) yielded an RP-LC retention time of 717 s.
With `CN1c2cc(F)ccc2C(=O)NC12CCN(C(=O)Cc1ccccc1)CC2` the RP-LC retention time was 779 s.
In the case of `CCOCCOC(=O)c1cn(-c2ccc(OC)cc2)c(=O)c2ccccc12`, the RP-LC retention time is reported as 963 s.
Compound `O=C(c1cc2cc(Br)ccc2[nH]1)N1CCCC1` has an RP-LC retention time of 905 s.
With `Cc1nn(-c2ccccc2)c2c1N(CCCC(=O)NCCC(C)C)C(=O)CS2` the RP-LC retention time was 657 s.
`N#Cc1cnc(-c2ccc(F)cc2)n(CC(=O)Nc2ccc(C(F)(F)F)cc2)c1=O` gave an RP-LC retention time of 1040 s.
`CC(=O)N1C[C@@H](C(=O)NCCCc2c(C)noc2C)[C@H](c2nc(C)no2)C1` showed an RP-LC retention time of 626 s.
`CCc1noc(NC(C)=O)c1-c1ccc(C)c(S(=O)(=O)Nc2ccc(Br)cc2F)c1` showed an RP-LC retention time of 903 s.
`O=C(NC1CCCCC1)C1CCCN(C(=O)c2cccc(Cl)c2)C1` (stereo not drawn) gave an RP-LC retention time of 864 s.
For `O=C(Cn1cnc2nc(N3CCC(C(=O)NC4CC4)CC3)sc2c1=O)Nc1ccccc1`, the RP-LC retention time was 650 s.
Compound `Cn1c(=O)c2cc(C(=O)NCc3ccccc3C(F)(F)F)nn2c2ccccc21` has an RP-LC retention time of 940 s.
For `CCOC(=O)C1CCN(C(=O)c2nnc(-c3ccc(S(=O)(=O)N4CCCCC4)cc3)o2)CC1`, the RP-LC retention time was 961 s.
Compound `Cc1ccsc1C(=O)N1CCC2(CC1)NC(=O)N(Cc1cccc(Cl)c1)C2=O` has an RP-LC retention time of 852 s.
For `O=C(c1cc(F)ccc1F)N1CCN(c2cc(-c3ccc(Cl)cc3)[nH]n2)CC1`, the RP-LC retention time was 847 s.
In the case of `Cc1ccc(CSc2nccc3c2ccn3CC(=O)N2CCN(c3ccccn3)CC2)cc1`, the RP-LC retention time is reported as 604 s.
`CCOC(=O)C(CC)n1cccc1-c1nc(-c2cccnc2)no1` (stereo not drawn) showed an RP-LC retention time of 1010 s.
In the case of `Cc1cnn(Cc2nc(-c3ccc(NC(=O)C(C)(C)C)cc3)oc2C)c1`, the RP-LC retention time is reported as 863 s.
`COc1ccc(Cn2c(=O)c3sccc3n(Cc3nc(-c4ccccc4C)no3)c2=O)cc1` showed an RP-LC retention time of 1150 s.
`O=C(Nc1ccccc1)N1CCN(c2nc3ccccc3nc2C(F)(F)F)CC1` showed an RP-LC retention time of 1070 s.
With `CCc1ccc(C2=C(C)C(N3CCC(C(=O)NCc4ccc(C)o4)CC3)=NS2(=O)=O)cc1` the RP-LC retention time was 944 s.
Work on `CCOC(=O)Cc1csc(NC(=O)C2CC(=O)N(c3n[nH]c4ccccc34)C2)n1` (stereo not drawn) yielded an RP-LC retention time of 689 s.
With `COc1ccc(CNC(=O)NCCc2nc3cccnc3n2Cc2ccccc2)cc1` the RP-LC retention time was 710 s.
For `CCn1c(=O)c2ccccc2n(Cc2nc(-c3ccccc3)no2)c1=O`, the RP-LC retention time was 991 s.
`O=C(NC1CCN(Cc2ccccc2)CC1)C1CCCN(c2nnc(-n3cccc3)s2)C1` (stereo not drawn) gave an RP-LC retention time of 659 s.
With `CC(C)Cc1cc(-c2nn3c(-c4ccc(F)cc4)nnc3s2)n[nH]1` the RP-LC retention time was 1010 s.
Compound `COc1cc(NC(=O)CN2C(=O)CC(c3ccccc3)=Nc3ccccc32)cc(OC)c1` has an RP-LC retention time of 973 s.
Work on `CC(=O)N1CCc2ccc(NC(=O)Cc3ccc(-c4ccccc4)cc3)cc2C1` yielded an RP-LC retention time of 800 s.
Compound `O=C(c1cccs1)N1CCCCC1c1nncn1-c1ccccc1` (stereo not drawn) has an RP-LC retention time of 705 s.
In the case of `CCCCNC(=O)c1ccc2c(c1)NC(=O)C(C(C)C)N2` (stereo not drawn), the RP-LC retention time is reported as 684 s.
`Oc1ccc(Cc2ccccc2Cl)c(O)c1` gave an RP-LC retention time of 891 s.
With `CCCCN(C)C(=O)Cn1c(C2CCCN2C(C)=O)nc2ccccc21` (stereo not drawn) the RP-LC retention time was 627 s.
`CCCCOc1ccc(-c2cc3c4nnc(CCC(=O)NCc5ccccc5C)n4ccn3n2)cc1` showed an RP-LC retention time of 1010 s.
`CN(C)c1ccc(C(=O)NCC(=O)Nc2nc3ccccc3[nH]2)cc1` gave an RP-LC retention time of 625 s.
In the case of `COc1ccc(-c2cn3ccn(-c4ccc(F)cc4)c(=O)c3n2)cc1`, the RP-LC retention time is reported as 776 s.
`COc1ccc(OC)c2sc(NC(=O)c3cccc(N4C(=O)CCC4=O)c3)nc12` showed an RP-LC retention time of 716 s.
With `CCc1noc(-c2ccc(SCC(=O)N3CCC(C)CC3)nc2)n1` the RP-LC retention time was 975 s.
Work on `Cc1nn(-c2ccccc2)c2c1N(CCCC(=O)N1CCOCC1)C(=O)CS2` yielded an RP-LC retention time of 694 s.
